Measured values reported in patent US9249145B2, “Heterocyclic derivatives of pyrazol-4-yl-pyrrolo[2,3-d]pyrimidines as janus kinase inhibitors” (Incyte Holdings Corporation, priority 2009, dated 2016).

How the values were obtained:
Jak2 (a.a. 828-1132) = target: T1, Jak2 (a.a. 828-1132) (Homo sapiens, UniProt O60674); assay: In vitro JAK kinase assay (HTRF, phosphorylation of biotinylated peptide), JAK2; type: biochemical; details: 1 mM ATP; Examples 92-162; read-out: JAK2 IC50 (nM) @ 1 mM ATP
T1 construct: Jak2 (a.a. 828-1132); His tag (N); made in house; host or cells: insect cells (baculovirus)
T1 sequence (O60674 828-1132): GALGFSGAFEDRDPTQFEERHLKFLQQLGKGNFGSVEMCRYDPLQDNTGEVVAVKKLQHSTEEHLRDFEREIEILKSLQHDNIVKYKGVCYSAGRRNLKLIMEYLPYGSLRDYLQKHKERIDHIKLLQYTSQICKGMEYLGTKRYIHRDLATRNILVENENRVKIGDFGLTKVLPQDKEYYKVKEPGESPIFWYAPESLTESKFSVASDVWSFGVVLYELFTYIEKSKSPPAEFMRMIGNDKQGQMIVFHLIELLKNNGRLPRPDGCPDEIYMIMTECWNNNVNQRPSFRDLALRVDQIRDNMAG
In short: (§1)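 IC50 from HTRF detection (Eu-Py20 antibody, SA-APC, 40 min) after EDTA quench. Reactions ran 1 h at room temperature with 500 nM biotinylated peptide in Tris pH 7.8 buffer with NaCl, DTT, BSA; ATP 90 μM for JAK1, 30 μM for JAK2 (Km), or 1 mM. Enzymes: His-tagged catalytic domains from insect cells.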

[1] = target: T2, human JAK1 (a.a. 837-1142) (Homo sapiens, UniProt P23458); assay: In vitro JAK kinase assay (HTRF, phosphorylation of biotinylated peptide), JAK1; type: biochemical; details: 1 mM ATP; Examples 92-162; read-out: JAK1 IC50 (nM) @ 1 mM ATP
T2 construct: The catalytic domains of human JAK1 (a.a. 837-1142); His tag (N); made in house; host or cells: insect cells (baculovirus)
T2 sequence (P23458 849-1154): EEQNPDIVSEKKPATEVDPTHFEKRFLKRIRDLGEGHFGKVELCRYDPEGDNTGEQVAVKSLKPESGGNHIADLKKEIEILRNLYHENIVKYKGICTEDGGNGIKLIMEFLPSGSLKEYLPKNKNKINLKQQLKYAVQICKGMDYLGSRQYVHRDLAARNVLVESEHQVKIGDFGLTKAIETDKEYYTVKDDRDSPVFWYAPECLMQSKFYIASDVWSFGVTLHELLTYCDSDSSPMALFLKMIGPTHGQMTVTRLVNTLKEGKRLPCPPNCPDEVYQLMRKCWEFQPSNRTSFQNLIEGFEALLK
In short: as §1

| IC50 (Jak2 (a.a. 828-1132)) [nM] | IC50 [1] [nM] | Structure (SMILES) |
| --- | --- | --- |
| 50 to 100 | < 20 | Cc1c(Nc2c(F)cccc2F)ncnc1N1CCC(C(CC#N)n2cc(-c3ncnc4[nH]ccc34)cn2)CC1 (stereo not shown) [Example 154, 3-(4-(7H-pyrrolo[2,3-d]pyrimidin-4-yl)-1H-pyrazol-1-yl)-3-(1-(6-(2,6-difluorophenylamino)-5-methylpyrimidin-4-yl)piperidin-4-yl)propanenitrile] |
| > 100 | < 20 | Cc1c(Nc2ccc(F)cc2F)ncnc1N1CCC(C(CC#N)n2cc(-c3ncnc4[nH]ccc34)cn2)CC1 (stereo not shown) [Example 155, 3-(4-(7H-pyrrolo[2,3-d]pyrimidin-4-yl)-1H-pyrazol-1-yl)-3-(1-(6-(2,4-difluorophenylamino)-5-methylpyrimidin-4-yl)piperidin-4-yl)propanenitrile] |

More lines, now with the values behind:

| Structure (SMILES) | IC50 (Jak2 (a.a. 828-1132)) [nM] | IC50 [1] [nM] |
| --- | --- | --- |
| N#CCC(C1CCN(c2cc(Oc3ccccc3)ncn2)CC1)n1cc(-c2ncnc3[nH]ccc23)cn1 (stereo not shown) [Example 151, 3-(4-(7H-pyrrolo[2,3-d]pyrimidin-4-yl)-1H-pyrazol-1-yl)-3-(1-(6-phenoxypyrimidin-4-yl)piperidin-4-yl)propanenitrile] | 50 to 100 | < 20 |
| N#CCC(C1CCN(c2cc(Oc3cccc(F)c3)ncn2)CC1)n1cc(-c2ncnc3[nH]ccc23)cn1 (stereo not shown) [Example 152, 3-(4-(7H-pyrrolo[2,3-d]pyrimidin-4-yl)-1H-pyrazol-1-yl)-3-(1-(6-(3-fluorophenoxy)pyrimidin-4-yl)piperidin-4-yl)propanenitrile] | < 20 | 20 to 50 |
| Cc1c(Nc2cccc(F)c2F)ncnc1N1CCC(C(CC#N)n2cc(-c3ncnc4[nH]ccc34)cn2)CC1 (stereo not shown) [Example 153, 3-(4-(7H-pyrrolo[2,3-d]pyrimidin-4-yl)-1H-pyrazol-1-yl)-3-(1-(6-(2,3-difluorophenylamino)-5-methylpyrimidin-4-yl)piperidin-4-yl)propanenitrile] | > 100 | 20 to 50 |
